From patent US7067145B2, “Use of arachidonic acid for enhanced culturing of fish larvae and broodstock” (University of Maryland Biotechnology Institute, priority 2000, dated 2006)
Several values for one entry are separate records, joined by “and”; a condition that tells them apart may be missing. Equal entries are not always repeated.

Key:
[1] = tested on: striped bass (M. saxatilis) larvae; test: Striped bass larvae feeding experiment (day 24-46) on Artemia enriched with DHA/AA emulsions: growth, survivorship; assay type: in vivo, Morone saxatilis; settings: day 46
Method: Newly hatched striped bass (M. saxatilis) larvae were obtained from the Aquaculture Research Center (ARC) of the Center of Marine Biotechnology (COMB), University of Maryland. Larvae were raised for 17 days post hatching on rotifers, Bracionus plicatilis (2-5 rotifers ml^−1), which were grown separately on fresh-water Chlorella sp. paste (0.5 g/10^6 rotifers/day, obtained from Martek BioSci. Inc. Columbia, Md.).
Seventeen days post-hatched larvae were randomly distributed in eighteen 60-liter rearing tanks at an initial density of 160 larvae per tank. The rearing tanks were gently aerated and the water volume exchanged 1-2 times per day with biofiltered, UV treated recirculating water. A 14:10 h light:dark photoperiod cycle was maintained using fluorescent lights (Daylight; 40 watts; 800-1200 lux at the water surface). Temperature was maintained at 24±2° C. and salinity at 2-6 psu. Water quality was monitored daily, and levels of total NH3, unionized N-3, NO2 and pH were maintained below 0.2 ppm, 0.001 ppm, 0.3 ppm and at 8.02, respectively, by partial replacement with fresh water.
Newly hatched Artemia nauplii were introduced to the larvae from day 17 until day 24 (once a day at 20-40 nauplii 1^−1), while rotifer concentration was reduced gradually to a complete removal by day 24.
Larvae then were fed twice daily with Artemia nauplii, enriched with nine dietary emulsions containing varying proportions of DHA and AA.
A 3×3 factorial design with two nutritional factors (DHA and AA) at three levels each and in duplicate blocks was used. This experimental design allowed for the simultaneous study of the effect of increasing dietary levels of DHA and AA either alone or in various combination of both fatty acids. Nine different emulsions having varying proportions of DHA-rich triacylglycerols from heterotrophically grown algae, Crypthecodinium spp. (0, 11.1 and 21.6 mg g^−1 lipids) and AA-rich triacylglycerols (3, 14.5 and 24.8 mg g^−1 lipids) from fungi, Mortierella spp. (DHASCO and ARASCO, Martek BioSci. Columbia, Md.) were formulated.
A mixture of 2% alginic acid, 2% polyoxyethylene sorbitan mono-oleate (Tween-80), 1% ascorbic acid, 1% vitamin-E, 1% silicon based anti-foaming agent (all mad e by Sigma Co. MO) and 5% soy lecithin (80% phosphatidylcholine, Archer Daniels Midland Co., Decatur, Ill.) were added to the oils (all additions made by weight). […]
Feeding experiments were terminated on day 46. […] Survivorship was determined based on the initial and final count of larvae in each rearing tank. […]

[2] = tested on: striped bass (M. saxatilis) larvae; test: Salinity stress test, larval survival; assay type: in vivo, Morone saxatilis; settings: for Survival (%) at 30 min: 30 min high-salinity stress (25 psu)
Method: (§1) A group of 30 larvae was promptly transferred from the 10-liter bucket and immediately divided into three 1-liter beakers (ten larvae in each beaker) containing 25-ppt NaCl in dechlorinated fresh water. These hypersaline exposure conditions were established following preliminary tests in which approximately 50% of the larvae survived after 30 minutes exposure. Larval survival at 0, 15 and 30 minutes was recorded, and five larvae at each time interval were quickly removed and sacrificed on dry ice. Samples were washed with chilled distilled water, dried on paper towel, placed into test tubes and lyophilized to constant weight. The dry weight of each hypersaline-exposed larva was recorded to the nearest 0.1 mg. Samples were kept at −80° C. for subsequent whole larva cortisol analysis.

[3] = tested on: striped bass (M. saxatilis) larvae; test: Whole larva cortisol (RIA) in high-salinity stress; assay type: in vivo, Morone saxatilis; settings: for Body Cortisol at 30 min: 30 min high-salinity stress
Method: as §1
Cortisol was measured on whole larva using a solid-phase radioimmunoassay (RIA) Coat-A-Count Cortisol kit (DPC, Los Angeles, Calif.) following the manufacturer's procedure. Whole body cortisol was extracted from lyophilized larvae with ethyl ether (Barry et al. 1995). Extraction efficiency was determined by adding 1000 dpm 1,2,6,7-^3H-cortisol to each larva sample (specific activity −67.0 Ci mmol^−1, Amersham, Piscataway, N.J.). Cortisol extracts were reconstituted in 150 μl RIA buffer (included in the cortisol RIA kit). Cortisol concentration was then determined in 100-μl aliquots. Spiking recovery was measured in unknown samples using three spiking dilutions (1, 3, 7 ng, Cortisol Immulite, DPC, Los Angeles, Calif.). […] Two additional 20-μl aliquots were taken to determine ^3H-cortisol recovery.

[4] = tested on: white bass, Morone chrysops larvae; test: White bass larvae feeding (22 days) on enriched Artemia: growth, survival, total lipid; assay type: in vivo
Method: Larvae rearing. Newly hatched white bass, Morone chrysops larvae were obtained from AquaFutures Inc. (Turners Falls, Mass.). Larvae were grown for 17 days on rotifers, Bracionus plicatilis (2-5 rotifers/ml), which had been cultured on fresh water Chlorella (Martek BioSci. Inc. Columbia, Md.) paste (0.5 g/10^6 rotiferes/day). Larvae were randomly distributed in eighteen 60-liter larval rearing tanks at an initial density of 160 larvae per tank. The tanks were gently aerated and the water volume exchanged 1-2 times per day with biofiltered, U.V treated recirculating water. A 14:10 h light:dark photoperiod was maintained using fluorescent light tubes (Daylight; 40 watts; 800-1200 lux at the water surface). Temperature was maintained at 242° C. and salinity at 2-6 psu. Water quality was monitored daily and levels of total NH3, unionized NH3, NO2 and pH were maintained below 0.2 ppm, 0.001 ppm, 0.3 ppm and at 8.02, respectively. […]
Larvae were then fed twice daily with previously enriched Artemia nauplii, as described above, at a concentration of 50-100 nauplii/liter for the next 22 days.
[…] The dry weight of each larva was recorded to the nearest […] Nettler UMT2, Toledo, Switzerland). […] Survivorship was determined based on the initial and final count of larvae in each rearing tank.

[5] = tested on: Gilthead sea bream, Sparus aurata larvae; test: Gilthead sea bream larvae fed enriched rotifers and Artemia; assay type: in vivo; settings: 5 to 34-day-old sea bream larvae; DHA enriched vs no DHA containing rotifers and Artemia
Method: Gilthead sea bream, Sparus aurata and European sea bass, Dicentrarchus labrax larvae originated from spawns of locally maintained broodstock were stocked over three days with two-day-old larvae (40,000 larvae tank^−1). Sea bream larvae from day 3 to day 20 were fed twice daily rotifers that were previously enriched on first phototrophically grown Nannochloropsis sp. and then on either Algamac-2000 or PL-Cr. Rotifer and Artemia enrichments and larval feeding were carried out as described in Koven et al. 2001. Sea bream larval growth and survival as a function of enrichment materials was recorded on day 34. European sea bass larvae were maintained in darkness until day-8 when they started feeding on non-enriched Artemia nauplii until day 11. From day-11 to day-21, the larvae were fed twice daily under low illumination (approximately 100-lux) Algamac-2000 or PL-Cr enriched Artemia nauplii.
Total lipids were extracted from triplicate samples. Lipid weight was determined gravimetrically (Mettler UMT2 ±0.1 mg, Toledo, Switzerland) and expressed as percent DW of sample. Fatty acid methyl esters (FAME) were prepared from the whole lipid extract, and the lipid classes separated, saponified and transmethylated as described by Harel et al. (2000).

[6] = dietary DHA 0.0 mg g^−1 D.W, pooled over AA levels

Structure (SMILES): CCCCC/C=C\C/C=C\C/C=C\C/C=C\CCCC(=O)O [AA, arachidonic acid]
- Larval weight ([1]; 3-mg AA g^−1 lipids): 19.4 mg dry weight
- Larval weight ([1]; 14.5-mg AA g^−1 lipids): 23.7 mg dry weight
- Mortality after 30 min of exposure ([2]; 3 mg g^−1 lipids dietary AA (AA deficient larvae), 25-psu): over 80%
- Survival (%) at 30 min ([2]; dietary AA 3.0 mg g^−1 D.W, pooled over DHA levels): 19.5 ± 1.8^B %
- Survival (%) at 30 min ([2]; dietary AA 14.5 mg g^−1 D.W): 61.8±4.2% and 61.8 ± 4.2^A %
- Survival (%) at 30 min ([2]; dietary AA 24.8 mg g^−1 D.W): 48.7 ± 5.0^A %
- Body Cortisol at 0 min ([3]; dietary AA 3.0 mg g^−1 D.W): 106 ± 10^B pg mg^−1 D.W
- Body Cortisol at 30 min ([3]; dietary AA 3.0 mg g^−1 D.W): 171 ± 18^A pg mg^−1 D.W
- Body Cortisol at 0 min ([3]; dietary AA 14.5 mg g^−1 D.W): 142 ± 15^A pg mg^−1 D.W
- Body Cortisol at 30 min ([3]; dietary AA 14.5 mg g^−1 D.W): 192 ± 27^A pg mg^−1 D.W
- Body Cortisol at 0 min ([3]; dietary AA 24.8 mg g^−1 D.W): 122 ± 10^AB pg mg^−1 D.W
- Body Cortisol at 30 min ([3]; dietary AA 24.8 mg g^−1 D.W): 167 ± 20^A pg mg^−1 D.W
- Increase in basal cortisol levels ([3]; increasing dietary AA from 3 to 14.5 mg AA g^−1 lipids): ~40%
- Larval growth (weight) ([4]; 25.4% AA of enrichment total fatty acids, 11.1% DHA): 13.1±1.5 mg dry weight
- Larval growth (weight) ([4]; no dietary AA, 11.1% DHA of total fatty acids in enrichment lipids): 21.3±1.8 mg dry weight

Structure (SMILES): CC/C=C\C/C=C\C/C=C\C/C=C\C/C=C\C/C=C\CCC(=O)O [DHA, docosahexaenoic acid]
- Larval weight (mean) ([1]; 21.6-mg DHA g^−1 lipids): 20.4 mg dry weight
- Larval weight (mean) ([1]; zero dietary DHA): 22.7 mg dry weight
- Survival (%) at 30 min [2, 6]: 30.7 ± 4.9^B %
- Survival (%) at 30 min ([2]; dietary DHA 11.1 mg g^−1 D.W): 48.3 ± 7.2^AB %
- Survival (%) at 30 min ([2]; dietary DHA 21.6 mg g^−1 D.W): 50.99 ± 5.8^A %
- Body Cortisol at 0 min [3, 6]: 123 ± 8^A pg mg^−1 D.W
- Body Cortisol at 30 min ([3]; dietary DHA 0.0 mg g^−1 D.W): 155 ± 16^B pg mg^−1 D.W
- Body Cortisol at 0 min ([3]; dietary DHA 11.1 mg g^−1 D.W): 128 ± 16^A pg mg^−1 D.W
- Body Cortisol at 30 min ([3]; dietary DHA 11.1 mg g^−1 D.W): 182 ± 22^AB pg mg^−1 D.W
- Body Cortisol at 0 min ([3]; dietary DHA 21.6 mg g^−1 D.W): 118 ± 11^A pg mg^−1 D.W
- Body Cortisol at 30 min ([3]; dietary DHA 21.6 mg g^−1 D.W): 193 ± 26^A pg mg^−1 D.W
- Improvement of larval growth [5]: ≤ 40%
